{"source": "patent US20250368678A1", "about": "“19-NOR-C3,3-DISUBSTITUTED C21-AZACYCLO-S[…] AND METHOD FOR USING SAME” (SHANDONG LUYE PHARMACEUTICAL CO., LTD., priority 2022, published 2025)", "key": {"[1]": {"target": "T1, α4β3δ GABA receptors (α4β3δ-HEK-FlpIn-TRex stable cell strain) (Homo sapiens, UniProt P28472+P48169)", "T1 construct": "expressed in transfected cells", "T1 sequence (P48169 36-554)": "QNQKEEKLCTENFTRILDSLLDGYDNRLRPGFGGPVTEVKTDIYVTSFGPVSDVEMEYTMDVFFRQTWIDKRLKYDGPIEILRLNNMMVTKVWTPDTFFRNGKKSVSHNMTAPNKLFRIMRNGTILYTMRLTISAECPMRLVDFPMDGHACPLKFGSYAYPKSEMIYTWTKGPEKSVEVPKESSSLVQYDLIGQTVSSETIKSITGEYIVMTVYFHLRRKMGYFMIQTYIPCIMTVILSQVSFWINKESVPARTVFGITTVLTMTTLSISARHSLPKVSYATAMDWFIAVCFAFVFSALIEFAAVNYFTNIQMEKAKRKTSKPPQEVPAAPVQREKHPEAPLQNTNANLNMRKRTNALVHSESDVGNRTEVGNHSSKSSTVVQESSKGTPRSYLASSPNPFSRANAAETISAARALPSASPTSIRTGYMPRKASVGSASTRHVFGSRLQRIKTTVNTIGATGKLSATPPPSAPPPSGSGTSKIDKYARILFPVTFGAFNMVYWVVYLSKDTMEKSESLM", "T1 sequence (P28472 26-473)": "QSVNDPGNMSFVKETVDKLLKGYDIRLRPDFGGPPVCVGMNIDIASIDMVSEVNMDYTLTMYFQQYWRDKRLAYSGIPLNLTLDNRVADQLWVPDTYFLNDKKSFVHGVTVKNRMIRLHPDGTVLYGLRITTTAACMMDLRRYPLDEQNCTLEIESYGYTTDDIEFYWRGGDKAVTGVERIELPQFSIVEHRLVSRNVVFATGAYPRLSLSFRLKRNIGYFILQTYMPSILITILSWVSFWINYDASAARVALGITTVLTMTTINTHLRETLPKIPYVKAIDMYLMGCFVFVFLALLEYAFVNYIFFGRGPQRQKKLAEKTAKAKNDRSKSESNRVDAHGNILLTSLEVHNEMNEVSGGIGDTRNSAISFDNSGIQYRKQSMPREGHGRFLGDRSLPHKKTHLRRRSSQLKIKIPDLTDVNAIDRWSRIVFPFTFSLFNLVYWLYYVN", "T1 sequence (O14764 25-452 partner)": "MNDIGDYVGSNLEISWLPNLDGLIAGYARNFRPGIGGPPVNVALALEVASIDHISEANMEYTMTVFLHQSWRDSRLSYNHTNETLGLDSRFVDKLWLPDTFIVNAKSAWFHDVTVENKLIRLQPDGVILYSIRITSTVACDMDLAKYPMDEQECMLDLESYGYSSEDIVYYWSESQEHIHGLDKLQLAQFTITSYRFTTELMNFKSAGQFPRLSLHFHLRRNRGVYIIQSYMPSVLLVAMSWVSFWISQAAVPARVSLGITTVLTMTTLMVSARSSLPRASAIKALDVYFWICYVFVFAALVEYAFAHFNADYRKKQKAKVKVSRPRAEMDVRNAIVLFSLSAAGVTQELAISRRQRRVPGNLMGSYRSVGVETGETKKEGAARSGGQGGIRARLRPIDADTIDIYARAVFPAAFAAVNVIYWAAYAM", "assay": "Whole-cell patch clamp, extrasynaptic functional activity (positive allosteric regulation of GABA-induced current)", "format": "cell-based", "settings": "patch clamp -60 mV, GABA at EC10-20, α4β3δ-HEK-FlpIn-TRex cells", "summary_of_the_method": "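Tetracycline-induced stable lines were used: α4β3δ in HEK-FlpIn-TRex and α1β2γ2 in CHO-TRex. Whole-cell patch clamp was run at −60 mV with GABA at EC10-20 ([…]) and compound perfused for 30 s before GABA, with extracellular pH 7.4. Fold increase in GABA current over ≥5 concentrations on ≥3 cells gave EC50 and Emax by Hill fit.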"}, "SD rats [2]": {"system": "SD rats", "assay": "Loss of righting reflex in SD rats, intragastric administration", "format": "in vivo", "settings": "for rate of loss of righting reflex: within 4 h", "excerpt": "To determine the threshold for the loss of righting reflex in SD rats after intragastric administration of compound 41 in order to evaluate the sedative effect and therapeutic safety window of compound 41.\nMale SD rats weighing 180-200 g, as experimental animals, were acclimatized for 7 days after arriving at the animal facility and were randomly divided into groups based on weight one day before experimentation. The rats were fasted overnight before experimentation but had access to water. Doses of compound 41 were designed in a 0.8-fold gradient, and the doses were set at 39 mg/kg, 31.25 mg/kg, 25 mg/kg, 20 mg/kg, and 16 mg/kg, with 10 rats in each group. Observations were made on the loss of righting reflex within 4 h of intragastrically administering the compound to the rats."}, "SD rats [3]": {"system": "SD rats", "assay": "Loss of righting reflex in SD rats, intraperitoneal injection", "format": "in vivo", "settings": "for rate of loss of righting reflex: within 4 h", "excerpt": "To determine the threshold for the loss of righting reflex in SD rats after injection of compound 41 in order to evaluate the sedative effect and therapeutic safety window of the compound.\nMale SD rats weighing 180-200 g, as test animals, were acclimatized for 7 days after arriving at the animal facility and were randomly divided into groups based on weight one day before testing. The rats were fasted for half a day before testing but had access to water. Doses of compound 41 were designed in a 0.8-fold gradient, and the doses were set at 23.5 mg/kg, 18.8 mg/kg, 15 mg/kg, 12 mg/kg, and 9.6 mg/kg. Observations were made on the loss of righting reflex within 4 h of intraperitoneally injecting compound 41 into the rats."}, "[4]": {"assay": "In vitro liver microsomal stability assay, human", "format": "in vitro ADME", "summary_of_the_method": "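Test compound at […] was incubated at 37° C with 0.5 mg/mL rat or human liver microsomes, 1 mM NADPH and 3 mM MgCl2, in triplicate, sampled 0–60 min. Remaining parent was quantified by LC-MS/MS, giving half-life and microsomal and hepatic intrinsic clearance.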"}}, "data": [{"smiles": "C[C@@]1(O)CC[C@H]2[C@H](CC[C@@H]3[C@@H]2CC[C@]2(C)[C@@H](C(=O)Cn4cnn(-c5cc(F)nc(F)c5)c4=O)CC[C@@H]32)C1", "note": "[Compound 41]", "values": [{"measurement": "EC50", "setting": "[1]", "result": 67, "unit": "nM"}, {"measurement": "Emax", "setting": "[1]", "result": 754, "unit": "%"}, {"measurement": "rate of loss of righting reflex", "setting": "SD rats [2]; 16 mg/kg intragastric, SD rats", "result": 0, "unit": "%"}, {"measurement": "rate of loss of righting reflex", "setting": "SD rats [2]; 20 mg/kg intragastric, SD rats", "result": 0, "unit": "%"}, {"measurement": "rate of loss of righting reflex", "setting": "SD rats [2]; 25 mg/kg intragastric, SD rats", "result": 50, "unit": "%"}, {"measurement": "rate of loss of righting reflex", "setting": "SD rats [2]; 31.25 mg/kg intragastric, SD rats", "result": 90, "unit": "%"}, {"measurement": "rate of loss of righting reflex", "setting": "SD rats [2]; 39 mg/kg intragastric, SD rats", "result": 100, "unit": "%"}, {"measurement": "threshold for loss of righting reflex relative to effective dose for the antiepileptic convulsion effect", "setting": "SD rats [2]; intragastric, 20 mg/kg vs 3.5 mg/kg, rats", "result": 5.7, "unit": "times"}, {"measurement": "therapeutic safety window (in words)", "setting": "SD rats [2]; intragastric, SD rats", "result": "relatively wide"}, {"measurement": "threshold dose for the loss of righting reflex", "setting": "SD rats [2]; intragastrically administered, SD rats", "result": 20, "unit": "mg/kg"}, {"measurement": "rate of loss of righting reflex", "setting": "SD rats [3]; 9.6 mg/kg intraperitoneal", "result": 0}, {"measurement": "rate of loss of righting reflex", "setting": "SD rats [3]; 12 mg/kg intraperitoneal", "result": 0}, {"measurement": "rate of loss of righting reflex", "setting": "SD rats [3]; 15 mg/kg intraperitoneal", "result": 30, "unit": "%"}, {"measurement": "rate of loss of righting reflex", "setting": "SD rats [3]; 18.8 mg/kg intraperitoneal", "result": 50, "unit": "%"}, {"measurement": "rate of loss of righting reflex", "setting": "SD rats [3]; 23.5 mg/kg intraperitoneal", "result": 80, "unit": "%"}, {"measurement": "therapeutic safety window (in words)", "setting": "SD rats [3]; intraperitoneal", "result": "relatively wide"}, {"measurement": "threshold dose for the loss of righting reflex", "setting": "SD rats [3]; intraperitoneally injected", "result": 12, "unit": "mg/kg"}, {"measurement": "CLint scaled at 1 µM", "setting": "[4]; Human liver microsomes", "result": "< 6.75", "unit": "mL/min/kg"}, {"measurement": "half-life at 1 µM", "setting": "[4]; Human liver microsomes", "result": "> 3.1", "unit": "h"}, {"measurement": "Remaining amount % at 60 min", "setting": "[4]; Human liver microsomes 0.5 mg/mL, NADPH", "result": 98.2, "unit": "%"}, {"measurement": "microsomal CLint at 1 µM", "setting": "[4]; Human liver microsomes, read-out: CLint(mic)", "result": "< 7.5", "unit": "µL/min/mg"}]}]}
